In publication PMC9977294, “A parasitic fungus employs mutated eIF4A to survive on rocaglate-synthesizing Aglaia plants” (eLife, 2023):
Several values for one entry are separate records, joined by “and”; a condition that tells them apart may be missing. Equal values may be shown once.

What was measured:
C. orbiculare eIF4A^WT = assay: In planta fungal biomass on cucumber cotyledons (RT-qPCR); assay type: in vivo, Colletotrichum orbiculare
Method: Fungal inoculation was performed as previously described ([Hiruma and Saijo, 2016]; [Kumakura et al., 2019]) with modifications. Cucumber cotyledons were used for C. orbiculare inoculation. Seeds of cucumber, Cucumis sativus Suyo strain (Sakata Seed Corp.), were planted on a mix of equal amounts of vermiculite (VS Kakou) and Supermix A (Sakata Seed Corp.). Cucumbers were grown at 24°C under a 10 hr light/14 hr dark cycle using biotrons (NK Systems). Cotyledons were detached from seedlings of cucumbers and inoculated with C. orbiculare at 13 days post-germination. C. orbiculare strains (eIF4A^WT#1 and eIF4A^H153G#1, Supplementary file 4) were cultured on 100 ml of 3.9% PDA in a 300 ml flask at 25°C for 6 days in the dark. […] The concentration of conidia was measured with disposable hemacytometers (Funakoshi) and adjusted to 10^5 conidia/ml with or without aglafoline (1 µM). […]
The living fungal biomass in cucumber leaves at 3.5 days postinoculation (dpi) was measured by RT-qPCR. Relative expression levels of the C. orbiculare 60S ribosomal protein L5 gene (GenBank: Cob_v012718) ([Gan et al., 2013]) normalized to that of a cucumber cyclophilin gene (GenBank: AY942800.1) ([Liang et al., 2018]) were determined. […]

H. sapiens eIF4A1 WT = target: T1, H. sapiens eIF4A1 WT (Homo sapiens, UniProt P60842); assay: In vitro translation assay in reconstituted system with human factors; assay type: biochemical; conditions: for translation of reporter mRNA, Mean / translation of reporter mRNA, replicates: CAA repeats reporter, value at 0 μM RocA = 1
T1 construct: His tag (N); made in house; host or cells: E. coli BL21 Star (DE3)
Text: (§1) The DNA fragments PCR-amplified from psiCHECK2−7×AGAGAG motifs or psiCHECK2-CAA repeats ([Iwasaki et al., 2016]) were used as a template for in vitro transcription with a T7-Scribe Standard RNA IVT Kit ([…]). RNA was capped and poly(A) tailed with a ScriptCap m^7G Capping System, a ScriptCap 2′-O-Methyltransferase Kit, and an A-Plus Poly(A) Polymerase Tailing Kit ([…]).
(§2) The reconstitution system for human translation has been described previously ([Iwasaki et al., 2019]; [Machida et al., 2018]; [Yokoyama et al., 2019]). The in vitro translation reaction and luciferase assay were performed as previously described ([Iwasaki et al., 2019]) with some modifications. The final concentrations of mRNA and the eIF4A protein were 60 ng/µl and 2.16 µM, respectively. The translation mixture was incubated for 2.5 hr. The fluorescence signal was detected using the Renilla-Glo Luciferase Assay System (Promega) and measured in an EnVision 2104 plate reader (PerkinElmer).

[1] = target: T2, H. sapiens eIF4A1 Phe163Gly (Homo sapiens, UniProt P60842, F163G); assay: as above; assay type: biochemical; conditions: for translation of reporter mRNA, Mean / translation of reporter mRNA, replicates: CAA repeats reporter, value at 0 μM RocA = 1
T2 construct: His tag (N); made in house; host or cells: E. coli BL21 Star (DE3)
Text: as §1, §2

T1 sequence (P60842 whole entry): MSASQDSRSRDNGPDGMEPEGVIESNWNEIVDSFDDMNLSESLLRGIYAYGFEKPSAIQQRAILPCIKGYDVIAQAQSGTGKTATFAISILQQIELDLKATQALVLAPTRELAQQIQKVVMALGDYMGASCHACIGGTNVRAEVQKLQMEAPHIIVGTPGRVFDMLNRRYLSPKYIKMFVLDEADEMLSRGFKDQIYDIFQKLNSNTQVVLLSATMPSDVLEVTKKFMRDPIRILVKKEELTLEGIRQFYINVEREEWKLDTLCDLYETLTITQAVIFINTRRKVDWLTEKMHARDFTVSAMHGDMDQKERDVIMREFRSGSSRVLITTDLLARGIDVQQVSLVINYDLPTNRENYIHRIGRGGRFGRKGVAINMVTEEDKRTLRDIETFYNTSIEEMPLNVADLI
T2 sequence (P60842 whole entry F163G): as the sequence (P60842 whole entry) above, with F163G counted along it

COC(=O)[C@H]1[C@@H](O)[C@@]2(O)c3c(OC)cc(OC)cc3O[C@@]2(c2ccc(OC)cc2)[C@@H]1c1ccccc1 [Aglafoline, methyl rocaglate]
in planta fungal biomass (C. orbiculare eIF4A^WT; cucumber leaves, 1 µM aglafoline, 3 dpi, Figure 4B): reduced the biomass of the WT eIF4A-recombined strain on cucumber leaves | In planta fungal biomass (Figure 4B source data), single replicates (C. orbiculare eIF4A^WT; eIF4AWT, aglafoline +, Replicate 1-8): 0.01241 and 0.4556 and 0.03831 and 0.01038 and 0.09347 and 0.5781 and 0.1819 and 0.09019

COc1ccc([C@@]23Oc4cc(OC)cc(OC)c4[C@]2(O)[C@H](O)[C@H](C(=O)N(C)C)[C@H]3c2ccccc2)cc1 [RocA, rocaglamide A]
translation of reporter mRNA, Mean (H. sapiens eIF4A1 WT; RocA 0.1 μM): 1.2394 | translation of reporter mRNA, replicates (H. sapiens eIF4A1 WT; RocA 0.1 μM): 0.9075 and 1.715 and 1.095 | translation of reporter mRNA, Mean (H. sapiens eIF4A1 WT; RocA 1 μM): 1.148 | translation of reporter mRNA, replicates (H. sapiens eIF4A1 WT; RocA 1 μM): 0.7715 and 1.702 and 0.9709 | translation of reporter mRNA, Mean (H. sapiens eIF4A1 WT; RocA 10 μM): 1.012 | translation of reporter mRNA, replicates (H. sapiens eIF4A1 WT; RocA 10 μM): 0.7743 and 1.31 and 0.9501 | translation of reporter mRNA (H. sapiens eIF4A1 WT; polypurine motif-possessing reporter mRNA, Figure 3A): translation reduction from polypurine motif-possessing reporter mRNA | translation of reporter mRNA, Mean ([1]; RocA 0.1 μM): 1.06 | translation of reporter mRNA, replicates ([1]; RocA 0.1 μM): 0.8871 and 1.301 and 0.9923 | translation of reporter mRNA, Mean ([1]; RocA 1 μM): 1.42 | translation of reporter mRNA, replicates ([1]; RocA 1 μM): 0.8083 and 2.551 and 0.9008 | translation of reporter mRNA, Mean ([1]; RocA 10 μM): 0.918 | translation of reporter mRNA, replicates ([1]; RocA 10 μM): 0.6256 and 1.131 and 0.9971 | translation of reporter mRNA ([1]; polypurine motif reporter mRNA, Figure 3A): prevented the translation repression mediated by RocA
